According to publication PMC5295395, “Inhibition of PlexA1-mediated brain tumor growth and tumor-associated angiogenesis using a transmembrane domain targeting peptide” (Oncotarget, 2016):

Legend:
NRP1-PlexA1 complex = test: co-immunoprecipitation of NRP1 with PlexA1 in U373MG cells; format: cell-based, human; details: 10^−7 M peptide 1 h
Description: (C) Rac-1 activation assay in resting condition and after Sema3A-induced Rac-1 activation in U373 MG cells. (D) Western blot analysis of phosphorylated Akt, total Akt and tubulin in U373MG cells treated with the vehicle (LDS 72 μM), Sema3A (100 ng/ml) or Sema3A + MTP-PlexA1 (10^−7 M). The lower panel is showing the quantification of the p-Akt/Akt ratio in the different conditions. (E) MTP-PlexA1 decreases VEGFR-2 phosphorylation induced by VEGF (100 ng/ml) in HUVEC cells. […]
in 20 mM sodium acetate (pH 4.5) at a flow rate of 5 μl/ min 10–7 M of MTP-PlexA1 or Vehicle (LDS, 72 µM) during until desired surface densities, measured in response 1 h. Stimulation was done with 100ng/ml Semaphorin 3A units, were reached. […] First antibodies (Rabbit anti-phospho-the elution buffer containing detergent removed non- akt, Rabbit anti-akt, Cell Signaling #4060 and #9272 biotinylated peptides rendering the chip ready for analysis respectively) and mouse anti-tubulin α (Cell Signaling with monomeric biot-MTP-PlexA1. Blank surfaces were #2144) were incubated overnight at 4°C (+ anti-NRP1, used for background corrections. Injections of 30 µl anti-PlexA4 Abcam). […] Images of the immuno-blots cells per well in a 6-well plate and serum starved overnight. were acquired and analyzed thanks to the GENE GNOME Before protein extraction, the cells were treated either with apparatus (Syngene Bio Imaging, UK).

HMEC cells = test: 3D migration assay with HMEC spheroids in plasma clot; format: cell-based, human; details: 3D plasma clot, MTP-PlexA1 10^−7 M, VEGF 100 ng/ml

Sequence: TLPAIVGIGGGGGLLLLVIVAVLIAYKRK [MTP-PlexA1, synthetic transmembrane peptide mimicking the TMD of PlexA1]
- change of NRP1 co-immunoprecipitated with PlexA1, Sema3A-induced (NRP1-PlexA1 complex; Sema3A 100 ng/ml 30 min): −24.6%
- reduction of NRP1 co-immunoprecipitated with PlexA1, VEGF (NRP1-PlexA1 complex; VEGF 100 ng/ml 10 min): 39.4%
- VEGFA-induced HMEC cell migration (HMEC cells): abolished
